Columns and labels:
g-ddY mice = assay: albuminuria (UACR) in g-ddY mouse model of IgA nephropathy; assay type: in vivo; conditions: for albuminuria compared to baseline: approximately 5 days
Description: The grouped ddY (g-ddY) mouse is a spontaneous model of early-onset IgA nephropathy characterized by IgA immune complex deposition in the mesangium of the kidney, leading to significant proteinuria, glomerular hypercellularity, mesangioproliferative glomerular lesions, glomerular sclerosis and reduced kidney function, all hallmarks of human IgA nephropathy (J Am Soc Nephrol 23: 1364-1374, 2012). Consistent with human IgA nephropathy, the mesangial IgA deposits in the g-ddY mouse are also accompanied by deposition of IgG and complement C3.

[1] = test system: kidney tissue of g-ddY mice; assay: Ingenuity Pathway Analysis (IPA) canonical pathways of kidney RNA-seq, g-ddY mice; assay type: in vivo, mouse; conditions: 30 mg/kg/day
[2] = patients with diabetic kidney disease (DKD); cited from earlier work
[3] = test system: kidney tissue of g-ddY mice; assay: RNA-seq differential gene expression in kidney tissue of g-ddY mice; assay type: in vivo, mouse
Experimental: RNA isolation and sequencing libraries were generated using standard protocols. Sequencing was performed using an Illumina NextSeq500 using manufacturer's instructions with a read length of 75 bp and a read depth of 30 million. Raw data was assembled to FASTQ files. Following QC analysis, high quality sequencing reads (e.g., reads with a Phred quality score >36) were aligned to the mouse reference genome (GRCm38-mm10) using the default parameters of the align algorithm and transcript count tables of each library was generated using the default parameters of the featureCounts algorithm of the RSubread package (Liao […], Shi W, 2019). High quality sequencing reads mapped to 27,129 genes. Following additional QC of low count filtering (i.e. transcripts <10 counts across all samples), 16,207 genes were identified and used for further analysis. The remaining sequencing read counts of the included 16,207 genes were normalized to library size, log-transformed, and were quantified as counts per million (CPM). Select RNA-seq counts were validated using qPCR. Sequencing read counts (CPM) were used for identification of differential gene expression between specified populations using the quasi-likelihood methodology of the edgeR package. […] MA plots were generated using edgeR. Heatmaps and other plots were generated using the gplots and ggplot2 package.

[4] = test system: primary human renal mesangial cells (HRMCs); assay: proliferation (BrdU) of mesangial cells stimulated with IgA-containing immune complexes; assay type: cell-based; conditions: immune complexes purified from three patients with IgA nephropathy
Description: Primary human mesangial cells in a culture were stimulated with pathogenic galactose deficient (Gd)-IgA containing immune complexes isolated from human IgA nephropathy patients. […] Specifically, pathogenic IgA-containing immune complexes were isolated from serum from either IgA nephropathy patients or age, gender and ethnicity-matched healthy individuals. Frozen serum was purchased from BioIVT and IgA-containing immune complexes were purified using jacalin affinity chromatography. […] Purified IgA-containing immune complexes were concentrated using a 100K Amicon filtration unit and the amount of total IgA and galactose-deficient IgA (Gd-IgA) in the immune complexes was measured by ELISA (ThermoFisher and IBL America, respectively). […] See, e.g., Novak et. al., Kidney International, 67, pp. 504-516; 2005; Novak et. al., Nephrol. Dial. Transplant, 26, pp. 3451-3457; 2011; Liang et. al., Cell Physiol. Biochem., 36, pp. 1793-1808; 2015; Nguyen et. al., Clin. Kidney 1, 12 (2), pp, 232-238; 2019.

[5] = atrasentan 10 mg/kg/day vs 0 mg/kg/day (control), g-ddY mice
[6] = atrasentan 20 mg/kg/day vs 0 mg/kg/day (control), g-ddY mice
[7] = atrasentan 30 mg/kg/day vs 0 mg/kg/day (control), g-ddY mice

CCCCN(CCCC)C(=O)CN1C[C@H](c2ccc3c(c2)OCO3)[C@@H](C(=O)O)[C@@H]1c1ccc(OC)cc1 [atrasentan, (2R,3R,4S)-4-(1,3-benzodioxol-5-yl)-1-[2-(dibutylamino)-2-oxoethyl]-2-(4-methoxyphenyl)pyrrolidine-3-carboxylic acid]
effect to reduce UACR from baseline compared to control group (g-ddY mice; 10 mg/kg/day): not significant | effect to reduce UACR from baseline compared to control group (g-ddY mice; 20 mg/kg/day, P=0.0498, un-paired t-test): statistically significant compared to the control group | albuminuria compared to baseline (g-ddY mice; 20 mg/kg/day, just failed statistical significance (P=0.0593)): reduced from baseline to a similar extent | effect to reduce UACR from baseline compared to control group (g-ddY mice; 30 mg/kg/day, P=0.029): statistically significant compared to the control group | albuminuria compared to baseline (g-ddY mice; 30 mg/kg/day, paired t-test): significantly (P=0.0002, paired two-sided t-test) reduced albuminuria from baseline | signaling pathways by IPA analysis [1]: reduced NF-κB signaling, IL-6 pathway signaling (e.g., STAT3), and PDGF signaling | risk of renal events (doubling of serum creatinine or end-stage kidney disease) [2]: significantly reducing the risk of renal events | ET1 gene signature genes downregulated versus untreated control ([3]; 10 mg/kg/day): Grk5, Mllt3, Klf2, Pparg, Hgf, Edn1, Fos, Ptgs2, and IL-1b | ET1 gene signature genes upregulated versus untreated control ([3]; 10 mg/kg/day): Ccnd1, Ppara, Agt, Map2k2 and Hoxa9 | ET1 gene signature genes downregulated versus untreated control ([3]; 20 mg/kg/day): Nfatc1, Grk5, Klf2, Cav1, Pparg, Itga5, Myc, Ednra, Sell, Hgf, Mmp2, Edn1, Syk, Fos, and IL-1b | ET1 gene signature genes upregulated versus untreated control ([3]; 20 mg/kg/day): Ccdn1, Cat, Ppara, Map2k2, Hoxa9, Agt, and Egfr | ET1 gene signature genes downregulated versus untreated control ([3]; 30 mg/kg/day): Ednrb, Myc, Mllt3, Hdac7, Ednra, Itga5, Grk5, Pparg, Klf2, Hgf, Mmp2, Sell, Sphk1, Fos, Syk, Edn1, and IL-1b | ET1 gene signature genes upregulated versus untreated control ([3]; 30 mg/kg/day): Ccnd1, Agt, Cat, Map2k2, Hoxa9, and Ppara | gene expression of Ednra and Ednrb ([3]; 30 mg/kg/day): downregulated | gene expression of ET1 (End1) ([3]; all three doses (10, 20, 30 mg/kg/day)): downregulated | logFC Ahnak gene expression [3, 5]: −0.5756 | logFC Akap12 gene expression [3, 5]: −0.2687 | logFC Akt3 gene expression [3, 5]: −0.3863 | logFC Aldob gene expression [3, 5]: 0.4194 | logFC Ankrd12 gene expression [3, 5]: −0.2824 | logFC C7 gene expression [3, 5]: −0.7767 | logFC Caldl gene expression [3, 5]: −0.3719 | logFC Cblb gene expression [3, 5]: −0.082 | logFC Ebfl gene expression [3, 5]: −0.3301 | logFC Epb4112 gene expression [3, 5]: −0.4375 | logFC Etsl gene expression [3, 5]: −0.2198 | logFC Fchsd2 gene expression [3, 5]: −0.2564 | logFC Frmd4a gene expression [3, 5]: −0.2838 | logFC Gata3 gene expression [3, 5]: −0.4822 | logFC Gpx3 gene expression [3, 5]: 0.6802 | logFC Igfbp7 gene expression [3, 5]: 0.2052 | logFC Lama2 gene expression [3, 5]: −0.2955 | logFC Maml2 gene expression [3, 5]: −0.2318 | logFC Mef2c gene expression [3, 5]: −0.6217 | logFC Meisl gene expression [3, 5]: −0.2507 | logFC Myh9 gene expression [3, 5]: −0.2094 | logFC Myole gene expression [3, 5]: −0.2349 | logFC Nbea gene expression [3, 5]: −0.2819 | logFC Nr4a1 gene expression [3, 5]: −1.525 | logFC Piezo2 gene expression [3, 5]: −0.4078 | logFC Postn gene expression [3, 5]: −1.385 | logFC Pparg gene expression [3, 5]: −0.6129 | logFC Ppp1r12a gene expression [3, 5]: −0.1995 | logFC Prkgl gene expression [3, 5]: −0.2187 | logFC Psd3 gene expression [3, 5]: −0.3544 | logFC Ptprm gene expression [3, 5]: −0.2614 | logFC Rapgef5 gene expression [3, 5]: −0.2732 | logFC Raphl gene expression [3, 5]: −0.2965 | logFC Rbms3 gene expression [3, 5]: −0.5749 | logFC Robol gene expression [3, 5]: −0.4803 | logFC Stard13 gene expression [3, 5]: −0.7224 | logFC Tacc1 gene expression [3, 5]: −0.2449 | logFC Tcf4 gene expression [3, 5]: −0.2176 | logFC Tjpl gene expression [3, 5]: −0.2489 | logFC Tns3 gene expression [3, 5]: −0.2638 | logFC Unc5c gene expression [3, 5]: 0.5618 | logFC Utrn gene expression [3, 5]: −0.49 | logFC Zeb2 gene expression [3, 5]: −0.5638 | logFC Ahnak gene expression [3, 6]: −0.7128 | logFC Akap12 gene expression [3, 6]: −0.5404 | logFC Akt3 gene expression [3, 6]: −0.4673 | logFC Aldob gene expression [3, 6]: 0.4923 | logFC Ankrd12 gene expression [3, 6]: −0.2463 | logFC C7 gene expression [3, 6]: −1.277 | logFC Caldl gene expression [3, 6]: −0.5361 | logFC Cblb gene expression [3, 6]: −0.2068 | logFC Ebfl gene expression [3, 6]: −0.3512 | logFC Epb4112 gene expression [3, 6]: −0.6149 | logFC Etsl gene expression [3, 6]: −0.3065 | logFC Fchsd2 gene expression [3, 6]: −0.1882 | logFC Frmd4a gene expression [3, 6]: −0.3955 | logFC Gata3 gene expression [3, 6]: −0.4924 | logFC Gpx3 gene expression [3, 6]: 0.71 | logFC Igfbp7 gene expression [3, 6]: 0.1088 | logFC Lama2 gene expression [3, 6]: −0.4437 | logFC Maml2 gene expression [3, 6]: −0.2311 | logFC Mef2c gene expression [3, 6]: −0.6302 | logFC Meisl gene expression [3, 6]: −0.3593 | logFC Myh9 gene expression [3, 6]: −0.4543 | logFC Myole gene expression [3, 6]: −0.292 | logFC Nbea gene expression [3, 6]: −0.1933 | logFC Piezo2 gene expression [3, 6]: −0.6148 | logFC Postn gene expression [3, 6]: −2.293 | logFC Pparg gene expression [3, 6]: −0.5616 | logFC Ppp1r12a gene expression [3, 6]: −0.2135 | logFC Prkgl gene expression [3, 6]: −0.328 | logFC Psd3 gene expression [3, 6]: −0.5227 | logFC Ptprm gene expression [3, 6]: −0.2678 | logFC Rapgef5 gene expression [3, 6]: -0.3804 | logFC Raphl gene expression [3, 6]: −0.3852 | logFC Rbms3 gene expression [3, 6]: −0.7192 | logFC Robol gene expression [3, 6]: −0.7261 | logFC Stard13 gene expression [3, 6]: −0.6367 | logFC Tacc1 gene expression [3, 6]: −0.3693 | logFC Tcf4 gene expression [3, 6]: −0.224 | logFC Tjpl gene expression [3, 6]: −0.3054 | logFC Tns3 gene expression [3, 6]: −0.3043 | logFC Unc5c gene expression [3, 6]: 0.3685 | logFC Utrn gene expression [3, 6]: −0.5143 | logFC Zeb2 gene expression [3, 6]: −0.6492 | logFC Ahnak gene expression [3, 7]: −1.013 | logFC Akap12 gene expression [3, 7]: −0.8211 | logFC Akt3 gene expression [3, 7]: −0.4843 | logFC Aldob gene expression [3, 7]: 0.748 | logFC Ankrd12 gene expression [3, 7]: −0.4726 | logFC C7 gene expression [3, 7]: −1.079 | logFC Caldl gene expression [3, 7]: −0.506 | logFC Cblb gene expression [3, 7]: −0.4288 | logFC Ebfl gene expression [3, 7]: −0.4506 | logFC Epb4112 gene expression [3, 7]: −0.7021 | logFC Etsl gene expression [3, 7]: −0.3379 | logFC Fchsd2 gene expression [3, 7]: −0.3772 | logFC Frmd4a gene expression [3, 7]: −0.5742 | logFC Gata3 gene expression [3, 7]: −0.5216 | logFC Gpx3 gene expression [3, 7]: 1.122 | logFC Igfbp7 gene expression [3, 7]: 0.4259 | logFC Lama2 gene expression [3, 7]: −0.4895 | logFC Maml2 gene expression [3, 7]: −0.4441 | logFC Mef2c gene expression [3, 7]: −0.6869 | logFC Meisl gene expression [3, 7]: −0.4934 | logFC Myh9 gene expression [3, 7]: −0.6171 | logFC Myole gene expression [3, 7]: −0.4177 | logFC Nbea gene expression [3, 7]: −0.432 | logFC Piezo2 gene expression [3, 7]: −0.8237 | logFC Postn gene expression [3, 7]: −1.247 | logFC Pparg gene expression [3, 7]: −0.6781 | logFC Ppp1r12a gene expression [3, 7]: −0.3826 | logFC Prkgl gene expression [3, 7]: −0.6356 | logFC Psd3 gene expression [3, 7]: −0.5843 | logFC Ptprm gene expression [3, 7]: −0.5453 | logFC Rapgef5 gene expression [3, 7]: −0.4225 | logFC Raphl gene expression [3, 7]: −0.5358 | logFC Rbms3 gene expression [3, 7]: −0.8895 | logFC Robol gene expression [3, 7]: −0.6009 | logFC Stard13 gene expression [3, 7]: −0.8466 | logFC Tacc1 gene expression [3, 7]: −0.4924 | logFC Tcf4 gene expression [3, 7]: −0.3055 | logFC Tjpl gene expression [3, 7]: −0.3989 | logFC Tns3 gene expression [3, 7]: −0.4522 | logFC Unc5c gene expression [3, 7]: 0.9517 | logFC Utrn gene expression [3, 7]: −0.7697 | logFC Zeb2 gene expression [3, 7]: −0.6778 | hyperproliferation of HRMCs induced by IgA containing immune complexes [4]: significantly attenuated the hyperproliferation

Reference: patent US20220304979A1, “METHODS OF REDUCING DISEASE FLARES” (Chinook Therapeutics, Inc., priority 2019, published 2022)
